From US9598387B2 (Southern Research Institute, priority 2012, dated 2017)

Experiments:
[1] = biological target: D2LR (Homo sapiens (Human), UniProt P14416); experiment: β-Arrestin Recruitment Assay, CHO-K1 DRD2L; assay type: cell-based; details: antagonist vs EC80 6 nM Pergolide, CHO-K1 DRD2L cells; read-out: D2 IC50
Protocol: (§1) Antagonist potency of the compounds against agonist induced recruitment of β-arrestin by D3R and D2LR was measured using DiscoverRx PathHunter eXpress kits. […] After incubation at 37° C. for 90 min, the DiscoveRx detection reagent was added, the plates were incubated at room temperature for 60 min and the luminescence was measured on a Synergy 4 plate reader (BioTek). The data were plotted and the agonist EC80 values were calculated using GraphPad Prism software. For antagonist activity, the cells were plated as described above and treated with multiple concentrations (starting from 500 nM, half log dilution, 10 dose points) of the test compounds in Plating Reagent with 0.1% DMSO.

[2] = biological target: human D2-long dopamine receptor (Homo sapiens (Human), UniProt P14416); experiment: Radioligand binding (125I-IABN competition), D2; details: HEK cell membranes expressing human D2-long
human D2-long dopamine receptor, sequence (P14416 whole entry): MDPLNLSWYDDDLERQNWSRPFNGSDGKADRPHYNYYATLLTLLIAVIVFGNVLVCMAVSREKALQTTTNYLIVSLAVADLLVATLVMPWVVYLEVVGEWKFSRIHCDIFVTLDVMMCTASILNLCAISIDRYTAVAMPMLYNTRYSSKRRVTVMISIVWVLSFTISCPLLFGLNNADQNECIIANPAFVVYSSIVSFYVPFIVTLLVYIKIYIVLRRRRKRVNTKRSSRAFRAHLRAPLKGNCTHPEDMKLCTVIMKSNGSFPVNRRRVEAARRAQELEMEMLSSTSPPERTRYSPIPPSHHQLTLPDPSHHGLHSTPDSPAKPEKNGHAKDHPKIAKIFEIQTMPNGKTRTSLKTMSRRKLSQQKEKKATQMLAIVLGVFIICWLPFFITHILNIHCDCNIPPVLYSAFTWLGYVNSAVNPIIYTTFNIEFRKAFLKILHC
Protocol: (§2) The affinities of the target compounds were determined using radioligand binding experiments. […] Competition curves were modeled for a single site. Data from competition dose-response curves were analyzed using Tablecurve program (Jandel). IC50 values were converted to equilibrium dissociation constants (Ki values) using the Cheng and Prusoff correction.

[3] = biological target: T1, D3R (Homo sapiens (Human), UniProt P35462); experiment: β-Arrestin Recruitment Assay, U2OS DRD3; assay type: cell-based; details: for IC50: antagonist vs EC80 8 nM PD128907, U2OS DRD3 cells, read-out: D3 IC50; for D2 IC50/D3 IC50: ratio of β-arrestin IC50 values
T1 sequence (P35462 whole entry): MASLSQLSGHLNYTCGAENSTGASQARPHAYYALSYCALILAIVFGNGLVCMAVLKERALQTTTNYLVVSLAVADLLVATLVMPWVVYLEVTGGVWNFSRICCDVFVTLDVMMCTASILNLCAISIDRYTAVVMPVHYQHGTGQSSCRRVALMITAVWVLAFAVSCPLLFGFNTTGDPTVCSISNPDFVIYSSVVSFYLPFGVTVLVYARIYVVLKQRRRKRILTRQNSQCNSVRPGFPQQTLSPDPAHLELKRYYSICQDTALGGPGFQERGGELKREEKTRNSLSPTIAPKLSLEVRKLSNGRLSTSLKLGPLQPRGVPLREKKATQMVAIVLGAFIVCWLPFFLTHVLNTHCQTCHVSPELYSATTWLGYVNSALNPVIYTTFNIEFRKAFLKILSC
Protocol: as §1

[4] = biological target: T2, human D3 dopamine receptor (Homo sapiens (Human), UniProt P35462); experiment: Whole Cell Adenylyl Cyclase Assay, D3; assay type: cell-based; details: inhibition of forskolin (100 μM) stimulated cAMP, normalized to quinpirole; compound conc ≥10× Ki (per compound); mean ± S.E.M.
T2 sequence (P35462 whole entry): as above
Protocol: (§3) The intrinsic activity of the compounds was evaluated by determining their ability to inhibit forskolin-dependent (100 μM) stimulation of adenylyl cyclase activity using a whole cell assay. A whole cell-cyclic AMP accumulation assay was performed with stably transfected HEK cells expressing human D2 or D3 dopamine receptors. This assay is an adaptation of an earlier published method (Su et al., Cyclic Nucleotide Res. 1976, 2, 257-285). Details regarding this method have been published (Chu, W. et al. Bioorg. Med. Chem. 2005, 13, 77-87; Taylor, M. et al. Synapse 2010, 64, 251-266). Confluent (60-80%) HEK cells transfected with recombinant D2-like dopamine receptors were grown in DMEM/10% fetal calf serum containing geneticin in […] flasks. The endogenous ATP pool is radioactively labeled by preincubating the cells in serum-free DMEM/25 mM Hepes medium containing 2 μCi/mL of [2,8-^3H]-adenine (20-Ci/mmol) in a 5% CO2 incubator at 37° C. for 75 min. The radioactive medium was removed by aspiration. Serum-free DMEM (5.6 mL) containing 25 mM HEPES, pH 7.4, and 0.1 mM of the phosphodiesterase inhibitor isobutylmethylxanthine was added to the flask. A […] aliquot of cells was removed and added to 50 μL of forskolin (100 μM) and 50 μL of test drug or quinpirole in DMEM-HEPES. The cells were incubated for 20 min at 37° C. (vortexing every 5 min). The reaction was terminated by the addition of 0.5 mL of 10% trichloroacetic acid (w/v) containing 1.0 mM unlabeled cyclic AMP as a recovery standard. Both the [^3H]-cyclic AMP and the [^3H]-ATP fractions were collected following separation using columns of Dowex AG-50W-X4 and alumina. The final yield of [^3H]-cyclic AMP is corrected for column recovery of unlabeled cyclic AMP determined spectrophotometrically (OD259). The results are reported as percent conversion of [^3H]-ATP into [^3H]-cyclic AMP. The values for the percent inhibition are reported as the actual percent of inhibition of the ^3H-cAMP accumulation relative to the assay performed in the absence of a test compound, minus basal activity. […] The percent maximum response is the value for the inhibition normalized to the value for the full agonist quinpirole.

[5] = biological target: T2, human D3 dopamine receptor; experiment: Radioligand binding (125I-IABN competition), D3; details: for Ki: 125I-IABN competition, HEK cell membranes expressing human D3; for D2/D3 (D3 selectivity ratio, D2 Ki/D3 Ki): calculated D2 Ki/D3 Ki
Protocol: as §2

[6] = biological target: human D2 dopamine receptors (Homo sapiens (Human), UniProt P14416); experiment: Whole Cell Adenylyl Cyclase Assay, D2; assay type: cell-based; details: inhibition of forskolin (100 μM) stimulated cAMP, normalized to quinpirole; compound conc ≥10× Ki (per compound); mean ± S.E.M.
human D2 dopamine receptors, sequence (P14416 whole entry): as the sequence (P14416 whole entry) above
Protocol: as §3

[7] = biological target: T1, D3R; experiment: D3 Mitogenesis Functional Assay (3H-thymidine uptake, CHOp-D3 cells); assay type: cell-based
In short: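 CHO cells expressing human D3, serum-starved 24 h, then given compound (agonist mode) or antagonist plus 30 nM quinpirole final for 16 h at 37 °C. A 2 h [3H]thymidine pulse was used for uptake.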

[8] = biological target: human D2 receptors (Homo sapiens (Human), UniProt P14416); experiment: D2 Mitogenesis Functional Assay (3H-thymidine uptake, CHOp-D2 cells); assay type: cell-based
human D2 receptors, sequence (P14416 whole entry): as above

D2LR, sequence (P14416 whole entry): as above

| Compound | IC50 [1] | Ki [2] | IC50 [3] | D2 IC50/D3 IC50 [3] | D3 Cyclase % Inhibition Normalized [4] | Ki [5] | D2/D3 (D3 selectivity ratio, D2 Ki/D3 Ki) [5] | D2 Cyclase % Inhibition Normalized [6] | EC50 ([7]; CHOp-D3 cells, stimulation of mitogenesis, read-out: D3 Agonist EC50) | Emax at 10 µM ([7]; at 10 μM, % maximum stimulation vs quinpirole (100%), read-out: D3 Agonist Emax) | D3 Antagonist Imax ([7]; inhibition of quinpirole stimulation of mitogenesis) | IC50 ([7]; read-out: D3 Antagonist IC50) | EC50 ([8]; CHOp-D2 cells, stimulation of mitogenesis, read-out: D2 Agonist EC50) | Emax at 10 µM ([8]; at 10 μM, % maximum stimulation vs quinpirole (100%), read-out: D2 Agonist Emax) | D2 Antagonist Imax ([8]; at 10 μM, inhibition of quinpirole stimulation of mitogenesis) | IC50 ([8]; read-out: D2 Antagonist IC50) |
| --- | --- | --- | --- | --- | --- | --- | --- | --- | --- | --- | --- | --- | --- | --- | --- | --- |
| CN(C)Cc1c(C(=O)NCCCCN2CCN(c3cc(C(F)(F)F)nc(C(C)(C)C)n3)CC2)nc2ccccn12 [Compound 120, N-(4-(4-(2-(tert-Butyl)-6-(trifluoromethyl)pyrimidin-4-yl)piperazin-1-yl)butyl)-3-((dimethylamino)methyl)imidazo[1,2-a]pyridine-2-carboxamide] | 217 ± 10 nM | 301 nM | 7.2 ± 3.68 nM | 30 | 47.4 ± 4.4% | 28.8 ± 6.1 nM | 10 | 8.9 ± 5.0% |  |  |  |  |  |  |  |  |
| COc1ccc2c(c1)CN(C(=O)NCCCCN1CCN(c3cc(C(F)(F)F)nc(C(C)(C)C)n3)CC1)C2 [Compound 40, N-(4-(4-(2-(tert-Butyl)-6-(trifluoromethyl)pyrimidin-4-yl)piperazin-1-yl)butyl)-5-methoxyisoindoline-2-carboxamide] | 157 ± 11 nM | 994 ± 106 nM | 0.8 ± 0.24 nM | 196 | 30.0 ± 7.9% | 2.3 ± 0.5 nM | 432 | −39.1 ± 12.5% |  |  |  |  |  |  |  |  |
| CC(C)(C)c1nc(N2CCN(CCCCNC(=O)N3CCc4c([nH]c5ccccc45)C3)CC2)cc(C(F)(F)F)n1 [Compound 55] | > 500 nM | 536 ± 118 nM | 26.2 ± 10.2 nM | >19 | 61.7 ± 6.4% | 3 ± 0.2 nM | 182 | 6.3 ± 4.3% |  |  |  |  |  |  |  |  |

Other lines, results leading:

| IC50 [1] | Ki [2] | IC50 [3] | D2 IC50/D3 IC50 [3] | D3 Cyclase % Inhibition Normalized [4] | Ki [5] | D2/D3 (D3 selectivity ratio, D2 Ki/D3 Ki) [5] | D2 Cyclase % Inhibition Normalized [6] | EC50 ([7]; CHOp-D3 cells, stimulation of mitogenesis, read-out: D3 Agonist EC50) | Emax at 10 µM ([7]; at 10 μM, % maximum stimulation vs quinpirole (100%), read-out: D3 Agonist Emax) | D3 Antagonist Imax ([7]; inhibition of quinpirole stimulation of mitogenesis) | IC50 ([7]; read-out: D3 Antagonist IC50) | EC50 ([8]; CHOp-D2 cells, stimulation of mitogenesis, read-out: D2 Agonist EC50) | Emax at 10 µM ([8]; at 10 μM, % maximum stimulation vs quinpirole (100%), read-out: D2 Agonist Emax) | D2 Antagonist Imax ([8]; at 10 μM, inhibition of quinpirole stimulation of mitogenesis) | IC50 ([8]; read-out: D2 Antagonist IC50) | Compound |
| --- | --- | --- | --- | --- | --- | --- | --- | --- | --- | --- | --- | --- | --- | --- | --- | --- |
| 376 ± 31 nM | 366 ± 18 nM | 3.86 ± 2.51 nM | 97 | 73.4 ± 11.0% | 2.7 ± 0.1 nM | 136 | 54.5 ± 4.5% |  |  |  |  |  |  |  |  | Cc1cc(N2CCN(CCCCNC(=O)N3CCN(c4ccccc4)CC3)CC2)nc(C(C)(C)C)n1 [Compound 5, N-(4-(4-(2-(tert-Butyl)-6-methylpyrimidin-4-yl)piperazin-1-yl)butyl)-4-phenylpiperazine-1-carboxamide] |
| > 500 nM | 470 ± 34 nM | 6.15 ± 0.33 nM | >81 | 60.7 ± 10.7% | 2.7 ± 0.7 nM | 174 | −4.8 ± 4.1% | > 10000 nM | 3% | 88.2% | 125 ± 37 nM | > 10000 nM | < 1% | 100% at 10 μM | 440 ± 160 nM | CC(C)(C)c1nc(N2CCN(CCCCNC(=O)N3CCN(c4ccccc4)CC3)CC2)cc(C(F)(F)F)n1 [Compound 8, N-(4-(4-(2-(tert-Butyl)-6-(trifluoromethyl)pyrimidin-4-yl)piperazin-1-yl)butyl)-4-phenylpiperazine-1-carboxamide] |
